Test results published in patent US20240415802A1, “GENISTEIN FOR ASTHMA TREATMENT” (University of South Florida, priority 2022, published 2024).

Legend:
PAI-1 [1] = molecular target: T1, PAI-1 (Mus musculus, UniProt P22777); conditions: OVA challenge model of allergic asthma; cited from earlier work
T1 sequence (P22777 23-402): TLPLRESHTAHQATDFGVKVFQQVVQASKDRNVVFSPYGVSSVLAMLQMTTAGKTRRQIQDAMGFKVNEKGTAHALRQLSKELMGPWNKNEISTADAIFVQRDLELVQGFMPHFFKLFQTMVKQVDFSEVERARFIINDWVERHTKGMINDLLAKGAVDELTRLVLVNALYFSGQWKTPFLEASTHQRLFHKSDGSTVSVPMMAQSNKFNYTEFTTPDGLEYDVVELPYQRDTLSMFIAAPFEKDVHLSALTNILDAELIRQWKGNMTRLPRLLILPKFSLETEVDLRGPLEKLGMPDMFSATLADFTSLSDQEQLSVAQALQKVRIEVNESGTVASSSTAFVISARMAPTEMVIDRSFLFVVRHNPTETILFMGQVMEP

PAI-1 4G promoter [2] = assay: PAI-1 promoter luciferase reporter assay in TGF-β stimulated NHBE cells; assay type: cell-based, human; conditions: NHBE cells transfected with 4G vector; TGF-β 2 ng/mL 6 hours; genistein pretreatment 5 μM 1 hour; p=0.007
Experimental: Normal human bronchial epithelial cells (NHBE) and a human mast cell line, LAD2, were cultured and transfected with luciferase plasmids containing a 4G, 5G or pGL3-basic vector (empty backbone). […] (FIG. 1B)
Normal human bronchial epithelial cells (NHBE) were cultured in 5% CO2 chamber at 37° C. with epithelial cell growth basal media (BEGM, Lonza). Cells were seeded on type 1 collagen-coated plate. Prior to transfection and stimulation, NHBEs were cultured without hydrocortisone (HC) for a day or two, at ˜80% confluency in 12 wells. Passage 2 or 3 was used for the experiment. Cells were transfected with luciferase plasmids containing different Pai-1 polymorphisms, 4G4G, 5G5G, pGL3-luciferase reporter basic vector (empty backbone, Promega, Madison, WI, USA) using Lipofectamine 3000 transfection reagent (Invitrogen, Waltham, MA, USA). Cells were stimulated for 6 hours with TGF-β (2 ng/mL, R&D Systems, Minneapolis, MN, USA) with and without genistein (Sigma-Aldrich, St. Louis, MO, USA) pretreatment (5 μM) for 1 hour. Cells were harvested and lysed in 1×PLB reagent prior to performing Dual-luciferase report assay (DLR assay, Promega, Madison, WI, USA). The firefly luciferase activity and Renilla luciferase activity were measured sequentially.

PAI-1 [3] = conditions: normal bronchial epithelial cells; cited from earlier work
PAI-1 4G promoter [4] = assay: PAI-1 promoter luciferase reporter assay in stimulated LAD2 mast cells; assay type: cell-based, human; conditions: cells transfected with 4G vector, genistein pretreatment 5 μM 1 hour
Experimental: LAD2 cells, a human mast cell line, were cultured and transfected with luciferase plasmids containing a 4G, 5G or pGL3-basic vector to determine the promotor activity. These LAD2 cells were stimulated overnight with IgE (100 ng/mL) and streptavidin (500 ng/mL) (IgE+streptavidin) for IgE-receptor cross-linking or Ionomycin (100 ng/mL) and phorbol myristate acetate (PMA, 10 ng/ml) (Ionomycin+PMA) with or without genistein pretreatment (5 μM) for 1 hour. […] LAD2 cells transfected with the 5G vector didn't increase promoter activity by IgE+Streptavidin/Ionomycin+PMA stimulation compared to no treatment (FIGS. 2C and 2D).
Human mast cells (LAD2) were grown in complete serum-free growth media (Stem pro-34 with the supplement, penicillin/streptomycin, L-glutamine and SCF recombinant, Invitrogen, Waltham, MA, USA). Cells were cultured in cytokine-free media (without SCF recombinant) at density of ˜0.5×10^6 per mL for a day prior to transfection and stimulation. Cells were transfected with luciferase plasmids containing different Pai-1 polymorphisms, 4G4G, 5G5G, pGL3-luciferase reporter basic vector (empty backbone, Promega, Madison, WI) using Lipofectamine 3000 transfection reagent (Invitrogen, Waltham, MA, USA). […] The firefly luciferase activity and Renilla luciferase activity were measured sequentially.

SMILES: O=C(O)C(=O)c1cn(Cc2ccccc2)c2ccc(-c3ccc(OC(F)(F)F)cc3)cc12 [Tiplaxtinin]
- Airway hyperresponsiveness (AHR) (PAI-1 [1]): reduced
- Degree of eosinophilic airway inflammation (PAI-1 [1]): reduced

SMILES: O=c1c(-c2ccc(O)cc2)coc2cc(O)cc(O)c12 [genistein, 5,7-dihydroxy-3-(4-hydroxyphenyl)-chromen-4-onc]
- PAI-1 4G promoter activity increased by TGF-β1 stimulation (PAI-1 4G promoter [2]): blocked by genistein pretreatment significantly
- TGF-β1-induced PAI-1 production (PAI-1 [3]): downregulation
- PAI-1 4G promoter activity increased by IgE+Streptavidin stimulation (PAI-1 4G promoter [4]; IgE 100 ng/mL + streptavidin 500 ng/mL, p=0.05): blocked by genistein pretreatment significantly
- PAI-1 4G promoter activity increased by Ionomycin+PMA stimulation (PAI-1 4G promoter [4]; Ionomycin 100 ng/mL + PMA 10 ng/ml, p<0.05): blocked by genistein pretreatment significantly
